Experimental data from patent US20240060990A1, “SPATIAL SIGNALING NETWORKS FOR MULTIPLEXED DRUG RESPONSE MEASUREMENT AND MODELING” (Georgia Tech Research Corporation, priority 2022, published 2024).
“Also recorded” adds a separate entry of the source.

Experiments:
[1] = test system: PC9 cells; assay: Cell survival: cell number on coverslip counted in ImageJ; type: cell-based, human
Experimental: The cell survival was measured based on the cell number on the coverslip. […] The cells were stained with p-EGFR, and β-tubulin and three ROIs were imaged for each concentration at 40×. The cell number on each ROI was counted in ImageJ following the steps: import the Channel image, make binary, convert it to masks, analyze particles, and then choose “masks” under the “show” option.

[2] = test system: Mcl-1/Bak; settings: HCC827 cells, 100 nM, 12 h, 5 PPI dataset
Experimental: Following that, the cells were then fixed and permeabilized with 1.6% formaldehyde in 1×PBS for 10 minutes at RT and 0.5% Triton X-100 for 10 minutes at RT, respectively. The cells were then blocked using a cell staining medium (CSM) containing 0.5% BSA, and 0.02% Sodium Azide in PBS. […] HCC827 cells were stained with p-ERK overnight followed by 1-hour incubation of secondary antibodies at RT, and 10 mins DAPI staining. The cells were then imaged at 40× magnification, and the intensity levels were analyzed. […] The coverslip was mounted to an acrylic holder for multiple cycles of staining.
RapMPI on cell cultures: For single color detection, each coverslip prepared with cells was stained with multiple PPIs with one PPI per cycle. The cells were fixed, permeabilized, and then ready for the following staining steps: 1) block the sample with Duolink blocking solution; 2) incubate it with one pair of proteins, conjugated to one PLUS and one MINUS oligonucleotide at 4° C. overnight.
PPI detection: PPI signals were detected using a custom algorithm leveraging a traditional image processing pipeline. More specifically, each PPI image was preprocessed as followed: images were first transformed using a top-hat filter of size 3 pixels to reduce the noise around PPI signals, then Laplacian of Gaussian images was used to detect bright local maxima as PPI signals. […]

[3] = test system: HCC827-derived mouse xenografts; assay: Tumor growth of HCC827-derived xenografts in mice; type: in vivo; settings: daily Osimertinib
[4] = test system: p-EGFR (Y1173); settings: PC9 cells; cited from earlier work
[5] = test system: p-EGFR (Tyr1086); assay: RapMIF multiplexed immunofluorescence in PC9 cells, p-EGFR; type: cell-based, human; settings: 40 nM
Experimental: (§1) Following that, the cells were then fixed and permeabilized with 1.6% formaldehyde in 1×PBS for 10 minutes at RT and 0.5% Triton X-100 for 10 minutes at RT, respectively (FIG. 10A). The cells were then blocked using a cell staining medium (CSM) containing […]. […] PC9 cells were stained with p-EGFR and β-tubulin overnight followed by 1-hour incubation of secondary antibodies at RT, and 15 mins DAPI staining. The cells were then imaged at 40× magnification, and the cell number was analyzed using ImageJ. […] The coverslip was mounted to an acrylic holder for multiple cycles of staining.

[6] = test system: PC9 cells; assay: Subpopulation clustering of single cells (Leiden); type: cell-based, human; settings: 40 nM
[7] = test system: Mcl-1; settings: cited from earlier work
[8] = test system: pancytokeratin-positive cells; assay: Pan-cytokeratin staining of HCC827 xenograft tissue; type: in vivo, mouse; settings: 2-month treatment
From the text: Tissues: HCC827-derived mouse xenografts were provided by Dr. Sun Shi-yong (Emory University). […] Mice were then euthanized, and the tumor was embedded in OCT for sectioning. The OCT tissues were fixed in acetone, rehydrated, permeabilized in 0.4% Triton X-100, blocked, and ready for multiplexed experiments.

[9] = test system: p-EGFR (Y1068); settings: PC9 cells; cited from earlier work
[10] = test system: p-EGFR (Tyr1086); assay: p-EGFR immunofluorescence across four drug concentrations; type: cell-based, human; settings: PC9 cells, 48 hours
Experimental: as §1

[11] = test system: p-ERK; settings: up to 24 hours; cited from earlier work
[12] = test system: PC9 cells; assay: RapMIF pixel clustering and spatial signaling network; type: cell-based, human
From the text: Pixel clustering: Pixel phenotypes were clustered in a two-step clustering pipeline (FIG. 6A). From each pixel location within the cell segmented region, the intensity value of each marker expression was extracted. The resulting feature matrix consisted of n rows of a total number of pixels and p columns equal to the number of markers. Each column of the feature matrix was min-max normalized. Then to filter out the background, each pixel location (row in the matrix) with all markers intensity lower than 0.3 was considered as background and dropped from the feature matrix. The cut-off of 0.3 was determined empirically so noise was filtered out of the cell segmented region. The feature matrix was first clustered using the K-Means algorithm with a high number of clusters (k=60). Then, the mean expression per cluster was calculated and the cluster was merged based on hierarchical clustering on the cosine similarity of the mean expression using the average linkage method with a tolerance of 0.2 of the maximum distance between clusters. The latent feature space was obtained using Uniform manifold approximation and projection (UMAP) and cluster labels were visualized by assigning each cluster color and reprojected on the UMAP embedding. A Heatmap of the mean expression level of marker per cluster was generated to show the variation of cluster phenotype.
Spatial signaling network: The network representation of spatial signaling was represented using the spatial information of pixel clustering. Each cluster was represented by a node with node size in the network proportional to the number of pixels in the corresponding cluster. For each cluster, the distribution of the neighbor cluster was calculated by looking at the 2-hop neighbor's cluster of all pixels in the cluster. The edge color represented low (blue) to high (red) neighboring probability between two clusters.

[13] = test system: HCC827 cells; assay: PPI network motif frequency in HCC827 cells; type: cell-based, human
From the text: Spatial Graph Construction: For each detected PPI in a cell, the corresponding 2D or 3D localization was extracted, and a node was assigned in the created graph. The node labels are assigned by creating a one-hot encoding of the corresponding PPI detected for the node. Delaunay triangulation was used to create edges connecting the nodes in the graph and therefore create a PPI spatial graph for each cell. The models are trained in a multi-instance learning framework, that is a cell label for each instance was assigned based on the cell treatment condition of a group.

## C=CC(=O)Nc1cc(Nc2nccc(-c3cn(C)c4ccccc34)n2)c(OC)cc1N(C)CCN(C)C [Osimertinib]
[1]; 48-hour treatment
  cell viability, higher vs lower drug concentrations: further decreased the cell viability
[1]; 48-hour treatment, 0, 20, 40, 60 nM
  number of cells adhering to the coverslips: decreased as the drug concentration has increased; also recorded: reduced the number of adherent PC9 cells compared to untreated ones
[2]
  Mcl1/Bak interaction (PPI count), cytoplasm or whole cell: did not exhibit an obvious change
[3]; 5-day treatment
  tumor: almost disappeared
[3]; continued treatment
  tumor as treatment continued (acquired resistance): grew back and larger
[3]; first week
  xenograft growth: effectively inhibited for the first week
[4]
  p-EGFR (Y1173) level: decreased the p-EGFR (Y1173) level
[5]; 48 hours
  p-EGFR localization (cell membrane, nucleus): mainly localized in the cell membrane and the nuclear p-EGFR expression was relatively low
[5]; 48 hours vs control
  p-EGFR (Tyr1086) expression level in multiplexed heatmap: remained minimally enhanced; also recorded: remained minimally altered
  spatial continuity of p-EGFR distribution on the cell membrane: disrupted spatial continuity in the p-EGFR distributions on the cell membrane
[6]
  distribution of treated cells over 12 subpopulations: mainly distributed in subpopulation 3 and subpopulation 0
[7]
  Mcl-1 level: downregulates Mcl-1
[8]
  pancytokeratin-positive cells: more pancytokeratin-positive cells
[9]
  p-EGFR (Y1068) level: failed to alter the p-EGFR (Y1068)
[10]
  p-EGFR expression, 60 nM vs 40 nM: relatively higher expression under 60 nM than 40 nM
[10]; 0 to 20 nM to 40 nM, normalized to β-tubulin
  p-EGFR expression: decreased the p-EGFR expression as the drug concentration increased from 0 to 20 nM to 40 nM
[11]
  p-ERK, total protein level by western blot: inhibitory role of Osimertinib on p-ERK for up to 24 hours
[12]
  spatial signaling networks: altered
[12]; 40 nM vs control
  p-β-catenin clusters 12 and 19: degree of node and neighborhoods: higher degree of a node and more neighborhoods with p-EGFR clusters
[12]; 40 nM, 48 hours vs control
  distribution of spatial signaling network maps in the cytosol (clusters 0, 1, 2): more dispersed (i.e., less aggregated) distribution in the cytosol; also recorded: more dispersed distribution in the cytosol
[12]; after 40 nM drug treatment
  proportion (frequency) of cluster 2 (WNT1) and cluster 6 (non-p-β-catenin): occupied a large proportion (frequency) after drug treatment
[12]; control vs 40 nM
  degree of the node of WNT1 in cluster 2: reduced from 10 to 4
[13]; 5 PPI network
  motif 9 (p-ERK/c-Myc & p-ERK/c-Myc) autoregulation: Increased autoregulation
  three-node motif 17 (Tead1/Yap&Tead1/Yap& p-ERK/c-Myc): more interactions
[13]; 9 PPIs dataset
  autoregulation of cyclin D1/CDK2 in motif 0 and motif 45: inhibited
  interaction between sox2/oct4 and Cyclin D1/CDK4 (motif 2, motif 47): downregulation
